# Results reported in patent US11572590B2, “Methods for evaluating tumor cell spheroids using 3D microfluidic cell culture device” (Dana-Farber Cancer Institute, Inc., priority 2017, dated 2023).
# Like-named read-outs stand apart in the source and are kept apart here.
# Assays:
# Assay in all cases: SelectScreen Kinase Profiling, single point inhibition and IC50 for off-target kinases
# Type in all cases: biochemical
# off-target kinases [1] = target: off-target kinases (Homo sapiens, UniProt Q02779); conditions: MAP3K10 (MLK2), LanthaScreen Binding
# off-target kinases (Homo sapiens, UniProt Q02779), sequence (Q02779 whole entry): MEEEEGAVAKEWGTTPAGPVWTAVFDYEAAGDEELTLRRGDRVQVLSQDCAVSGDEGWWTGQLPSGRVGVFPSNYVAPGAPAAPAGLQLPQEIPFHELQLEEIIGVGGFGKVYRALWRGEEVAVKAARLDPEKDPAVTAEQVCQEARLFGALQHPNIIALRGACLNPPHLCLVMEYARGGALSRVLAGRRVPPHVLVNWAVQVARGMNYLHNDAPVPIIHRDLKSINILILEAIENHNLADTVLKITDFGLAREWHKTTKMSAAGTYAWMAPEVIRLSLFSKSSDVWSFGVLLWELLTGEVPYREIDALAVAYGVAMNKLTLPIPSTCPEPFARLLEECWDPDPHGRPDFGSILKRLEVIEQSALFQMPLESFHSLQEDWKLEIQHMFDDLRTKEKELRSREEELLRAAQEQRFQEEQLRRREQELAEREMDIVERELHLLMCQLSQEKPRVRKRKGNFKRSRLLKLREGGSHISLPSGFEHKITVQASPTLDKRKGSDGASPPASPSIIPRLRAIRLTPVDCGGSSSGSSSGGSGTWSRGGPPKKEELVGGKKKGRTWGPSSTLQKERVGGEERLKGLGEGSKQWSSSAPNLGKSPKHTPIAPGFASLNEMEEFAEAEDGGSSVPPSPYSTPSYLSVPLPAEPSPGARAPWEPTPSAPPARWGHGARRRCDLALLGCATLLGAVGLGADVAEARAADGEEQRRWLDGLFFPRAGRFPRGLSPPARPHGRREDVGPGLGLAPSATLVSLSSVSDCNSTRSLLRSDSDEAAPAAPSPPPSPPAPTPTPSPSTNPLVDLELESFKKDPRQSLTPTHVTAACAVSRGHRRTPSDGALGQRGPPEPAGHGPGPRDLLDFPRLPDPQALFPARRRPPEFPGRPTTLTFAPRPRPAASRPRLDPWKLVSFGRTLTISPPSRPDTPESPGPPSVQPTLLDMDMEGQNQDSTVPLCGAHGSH
# off-target kinases [2] = target: off-target kinases (Homo sapiens, UniProt P07949, M918T); conditions: RET M918T, mutant y, LanthaScreen Binding
# off-target kinases (Homo sapiens, UniProt P07949, M918T), sequence (P07949 29-1114 M918T): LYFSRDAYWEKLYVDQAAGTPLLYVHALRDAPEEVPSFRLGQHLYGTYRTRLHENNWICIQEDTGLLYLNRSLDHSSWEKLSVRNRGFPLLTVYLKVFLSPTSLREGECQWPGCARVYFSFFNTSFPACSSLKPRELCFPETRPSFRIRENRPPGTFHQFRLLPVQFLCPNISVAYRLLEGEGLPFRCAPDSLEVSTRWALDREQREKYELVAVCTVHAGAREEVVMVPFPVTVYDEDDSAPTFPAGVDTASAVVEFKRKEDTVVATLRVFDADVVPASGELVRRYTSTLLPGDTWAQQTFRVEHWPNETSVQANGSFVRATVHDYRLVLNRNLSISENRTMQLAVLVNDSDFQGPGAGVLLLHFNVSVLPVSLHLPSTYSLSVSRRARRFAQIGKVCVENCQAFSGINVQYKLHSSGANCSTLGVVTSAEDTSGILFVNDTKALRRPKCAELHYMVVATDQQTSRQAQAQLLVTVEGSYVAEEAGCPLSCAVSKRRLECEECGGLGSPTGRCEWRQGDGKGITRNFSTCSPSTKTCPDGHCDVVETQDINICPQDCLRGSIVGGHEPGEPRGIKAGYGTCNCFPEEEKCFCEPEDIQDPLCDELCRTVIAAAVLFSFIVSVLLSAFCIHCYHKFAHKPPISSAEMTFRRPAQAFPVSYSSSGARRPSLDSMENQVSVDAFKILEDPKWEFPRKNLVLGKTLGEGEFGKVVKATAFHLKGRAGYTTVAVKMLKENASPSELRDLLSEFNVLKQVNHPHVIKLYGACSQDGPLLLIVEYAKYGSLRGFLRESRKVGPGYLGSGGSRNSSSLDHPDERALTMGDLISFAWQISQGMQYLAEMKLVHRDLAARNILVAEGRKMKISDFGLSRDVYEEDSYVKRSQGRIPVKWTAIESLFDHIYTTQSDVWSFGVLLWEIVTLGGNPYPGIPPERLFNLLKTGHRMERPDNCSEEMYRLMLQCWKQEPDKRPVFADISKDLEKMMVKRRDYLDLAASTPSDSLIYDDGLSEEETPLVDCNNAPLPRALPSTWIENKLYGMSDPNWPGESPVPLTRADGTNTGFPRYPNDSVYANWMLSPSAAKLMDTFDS
# off-target kinases [3] = target: off-target kinases (Homo sapiens, UniProt P49761); conditions: CLK3, ZLYTE, ATP Km app
# off-target kinases (Homo sapiens, UniProt P49761), sequence (P49761 whole entry): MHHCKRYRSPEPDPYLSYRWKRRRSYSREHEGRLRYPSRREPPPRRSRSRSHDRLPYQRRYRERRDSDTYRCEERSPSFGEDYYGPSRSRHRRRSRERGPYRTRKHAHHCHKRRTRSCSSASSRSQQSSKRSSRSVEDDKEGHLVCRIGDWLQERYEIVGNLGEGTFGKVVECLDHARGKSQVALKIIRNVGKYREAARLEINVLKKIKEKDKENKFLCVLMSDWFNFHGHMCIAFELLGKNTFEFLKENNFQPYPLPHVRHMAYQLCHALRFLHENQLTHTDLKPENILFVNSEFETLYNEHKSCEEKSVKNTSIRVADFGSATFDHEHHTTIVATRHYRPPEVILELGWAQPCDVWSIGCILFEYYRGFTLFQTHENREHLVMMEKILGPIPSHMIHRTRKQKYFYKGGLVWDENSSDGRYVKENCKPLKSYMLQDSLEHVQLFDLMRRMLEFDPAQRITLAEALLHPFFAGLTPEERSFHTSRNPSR
# off-target kinases [4] = target: T1, off-target kinases (Homo sapiens, UniProt Q96L34); conditions: MARK4, ATP Km app, ZLYTE
# T1 sequence (Q96L34 1-752): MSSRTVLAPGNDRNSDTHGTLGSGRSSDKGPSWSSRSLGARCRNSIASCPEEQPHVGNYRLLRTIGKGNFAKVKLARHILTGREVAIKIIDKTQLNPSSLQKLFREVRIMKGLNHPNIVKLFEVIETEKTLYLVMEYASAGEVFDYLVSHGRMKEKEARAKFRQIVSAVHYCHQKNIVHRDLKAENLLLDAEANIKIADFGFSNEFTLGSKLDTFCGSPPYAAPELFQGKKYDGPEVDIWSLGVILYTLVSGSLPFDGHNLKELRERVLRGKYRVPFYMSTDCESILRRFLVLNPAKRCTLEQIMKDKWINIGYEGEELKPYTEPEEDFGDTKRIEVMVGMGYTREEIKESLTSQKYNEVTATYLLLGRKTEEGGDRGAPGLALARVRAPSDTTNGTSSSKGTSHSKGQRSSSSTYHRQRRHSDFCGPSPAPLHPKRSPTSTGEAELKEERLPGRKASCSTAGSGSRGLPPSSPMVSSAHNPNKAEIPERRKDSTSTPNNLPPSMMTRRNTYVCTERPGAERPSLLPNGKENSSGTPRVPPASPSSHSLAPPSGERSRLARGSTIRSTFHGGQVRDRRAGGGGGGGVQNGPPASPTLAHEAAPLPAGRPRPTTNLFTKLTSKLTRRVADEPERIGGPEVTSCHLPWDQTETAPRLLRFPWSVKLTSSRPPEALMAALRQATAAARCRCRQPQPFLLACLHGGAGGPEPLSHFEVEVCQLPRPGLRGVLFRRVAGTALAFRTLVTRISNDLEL
# off-target kinases [5] = target: off-target kinases (Homo sapiens, UniProt P48736); conditions: PIK3CG (p110 gamma), Adapta, ATP Km app
# off-target kinases (Homo sapiens, UniProt P48736), sequence (P48736 whole entry): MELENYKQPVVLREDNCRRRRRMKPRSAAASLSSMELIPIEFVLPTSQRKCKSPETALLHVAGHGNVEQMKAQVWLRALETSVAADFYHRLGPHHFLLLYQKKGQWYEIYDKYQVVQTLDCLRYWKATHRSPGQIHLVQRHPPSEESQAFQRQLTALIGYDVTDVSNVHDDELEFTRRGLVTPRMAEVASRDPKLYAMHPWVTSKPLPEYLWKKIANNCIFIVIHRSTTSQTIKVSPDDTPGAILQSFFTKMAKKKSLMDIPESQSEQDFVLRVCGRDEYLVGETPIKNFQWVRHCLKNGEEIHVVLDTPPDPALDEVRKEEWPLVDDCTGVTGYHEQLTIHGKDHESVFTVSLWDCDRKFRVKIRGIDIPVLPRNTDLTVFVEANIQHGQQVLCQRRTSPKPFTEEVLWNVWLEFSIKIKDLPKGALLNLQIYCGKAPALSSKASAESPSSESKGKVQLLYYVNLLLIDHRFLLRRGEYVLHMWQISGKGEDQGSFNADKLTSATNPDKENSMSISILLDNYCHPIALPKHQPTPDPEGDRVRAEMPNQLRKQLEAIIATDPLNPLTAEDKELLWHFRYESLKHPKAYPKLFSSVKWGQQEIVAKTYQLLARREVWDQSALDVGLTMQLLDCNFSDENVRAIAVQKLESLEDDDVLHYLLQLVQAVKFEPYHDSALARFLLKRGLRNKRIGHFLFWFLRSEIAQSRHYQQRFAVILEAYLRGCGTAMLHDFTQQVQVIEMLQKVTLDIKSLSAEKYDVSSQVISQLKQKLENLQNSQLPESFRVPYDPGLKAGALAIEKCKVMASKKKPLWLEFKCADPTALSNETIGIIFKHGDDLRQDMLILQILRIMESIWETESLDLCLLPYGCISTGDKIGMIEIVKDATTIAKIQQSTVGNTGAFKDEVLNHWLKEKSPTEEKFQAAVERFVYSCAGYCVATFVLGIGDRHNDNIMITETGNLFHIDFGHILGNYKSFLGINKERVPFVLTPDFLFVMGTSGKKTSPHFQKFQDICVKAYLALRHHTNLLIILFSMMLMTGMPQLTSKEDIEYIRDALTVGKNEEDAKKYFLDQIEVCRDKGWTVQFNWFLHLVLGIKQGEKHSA
# off-target kinases [6] = target: off-target kinases (Homo sapiens, UniProt P00533); conditions: EGFR (ErbB1), ZLYTE, ATP Km app
# off-target kinases (Homo sapiens, UniProt P00533), sequence (P00533 25-1210): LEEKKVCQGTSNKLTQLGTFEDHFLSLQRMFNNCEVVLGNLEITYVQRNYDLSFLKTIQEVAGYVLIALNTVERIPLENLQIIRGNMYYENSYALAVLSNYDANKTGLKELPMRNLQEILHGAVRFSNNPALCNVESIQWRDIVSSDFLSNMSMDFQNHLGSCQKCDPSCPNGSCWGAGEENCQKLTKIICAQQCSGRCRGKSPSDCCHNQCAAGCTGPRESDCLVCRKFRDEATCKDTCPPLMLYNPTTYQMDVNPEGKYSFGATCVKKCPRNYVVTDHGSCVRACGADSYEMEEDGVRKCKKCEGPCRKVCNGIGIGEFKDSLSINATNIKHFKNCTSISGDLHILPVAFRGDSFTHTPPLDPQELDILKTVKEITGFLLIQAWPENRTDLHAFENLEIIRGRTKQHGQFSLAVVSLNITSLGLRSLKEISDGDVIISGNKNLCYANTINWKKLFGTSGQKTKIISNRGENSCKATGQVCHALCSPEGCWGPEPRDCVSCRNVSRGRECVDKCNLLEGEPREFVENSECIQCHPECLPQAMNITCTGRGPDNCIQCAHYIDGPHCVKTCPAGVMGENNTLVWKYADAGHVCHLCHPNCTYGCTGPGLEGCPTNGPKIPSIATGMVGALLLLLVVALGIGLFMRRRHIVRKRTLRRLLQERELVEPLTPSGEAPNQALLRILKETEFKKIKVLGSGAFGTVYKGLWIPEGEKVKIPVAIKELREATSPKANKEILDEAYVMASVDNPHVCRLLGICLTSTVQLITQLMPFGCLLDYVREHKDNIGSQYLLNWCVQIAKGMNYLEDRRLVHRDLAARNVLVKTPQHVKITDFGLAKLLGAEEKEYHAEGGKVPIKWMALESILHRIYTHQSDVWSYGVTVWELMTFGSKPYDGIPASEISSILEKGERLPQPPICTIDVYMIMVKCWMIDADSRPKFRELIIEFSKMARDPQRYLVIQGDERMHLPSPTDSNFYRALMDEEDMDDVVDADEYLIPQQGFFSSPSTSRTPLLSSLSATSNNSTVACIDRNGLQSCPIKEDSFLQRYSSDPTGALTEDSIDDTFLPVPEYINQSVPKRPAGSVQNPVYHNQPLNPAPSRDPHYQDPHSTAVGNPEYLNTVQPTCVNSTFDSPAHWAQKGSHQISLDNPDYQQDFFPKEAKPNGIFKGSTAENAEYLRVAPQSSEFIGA
structure (smiles),measurement,setting,value
"N#Cc1cc(-c2ncnc(Nc3ccc(N4CCN(C5COC5)CC4)cc3)n2)ccc1OC1CCOCC1 [Compound 1, 5-(4-((4-(4-(oxetan-3-yl)piperazin-1-yl)phenyl)amino)-1,3,5-triazin-2-yl)-2-((tetrahydro-2H-pyran-4-yl)oxy)benzonitrile]",inhibition,off-target kinases [1]; read-out: % Inhibition 1,58%
same,inhibition,off-target kinases [1]; read-out: % Inhibition 2,60%
same,inhibition,off-target kinases [1]; read-out: % Inhibition Avg,59%
same,inhibition,off-target kinases [2]; read-out: % Inhibition 1,10%
same,inhibition,off-target kinases [2]; read-out: % Inhibition 2,13%
same,inhibition,off-target kinases [2]; read-out: % Inhibition Avg,12%
same,inhibition,off-target kinases [3]; read-out: % Inhibition 1,1%
same,inhibition,off-target kinases [3]; read-out: % Inhibition 2,3%
same,inhibition,off-target kinases [3]; read-out: % Inhibition Avg,2%
same,inhibition,off-target kinases [4]; read-out: % Inhibition 1,96%
same,inhibition,off-target kinases [4]; read-out: % Inhibition 2,93%
same,inhibition,off-target kinases [4]; read-out: % Inhibition Avg,95%
same,inhibition,off-target kinases [5]; read-out: % Inhibition 1,11%
same,inhibition,off-target kinases [5]; read-out: % Inhibition 2,8%
same,inhibition,off-target kinases [5]; read-out: % Inhibition Avg,9%
same,inhibition,off-target kinases [6]; read-out: % Inhibition 1,10%
same,inhibition,off-target kinases [6]; read-out: % Inhibition 2,9%
same,inhibition,off-target kinases [6]; read-out: % Inhibition Avg,9%
